According to PMC9694334, “Synthesis and Biological Evaluation of a Fused Structure of Indolizine and Pyrrolo[1,2-c]pyrimidine: Identification of Its Potent Anticancer Activity against Liver Cancer Cells” (Pharmaceuticals, 2022):

Assays:
Type in all cases: cell-based
HepG2 cells [1] = assay: Cell viability assay (MTS) in HepG2 cells; details: Homo sapiens, MTS, mean, n = 5, 72 h for 5r (Figure 2)
Procedure: (§1) HepG2, Huh7, H1299, HT29, AGS and A549 cells were purchased from the Korean Cell Line Bank (Seoul, Korea) and HaCaT cells were obtained from Prof. Sohee Kwon (Yonsei University, Korea). Liver cancer cells (HepG2), human keratinocyte cells (HaCaT), and lung cancer cells (A549) were grown in DMEM high-glucose medium, liver cancer cells (Huh7) and non-small cell lung cancer cells (H1299) were grown in RPMI 1640, and gastric cancer cells (AGS) were grown in Coon’s modified F12 medium. All media were supplemented with 10% FBS, 100 Units/mL penicillin, and 100 μg/mL streptomycin. All cells were incubated at 37 °C, 5% CO2 and 95% humidity.
(§2) Cell viability assay was conducted using Cell Titer 96® AQueous One Solution Cell proliferation Assay kit (Promega, Madison, WI, USA). Five cancer cells and HaCaT cells were plated in 96-well microplates with growth medium for 24 h. When cell confluency reached ~30%, cells were treated with DMSO (vehicle) and test compounds. The medium and test compounds were replaced every 24 h. To measure cell viability, the cells were incubated with MTS solution for 1 h. The absorbance was measured by using Infinite M200 microplate reader (Tecan, Männedorf, Switzerland) at 490 nm.
(§3) Figure 2 Effect of 5r on cell viability in HepG2, Huh7, AGS, H1299, A549, HaCaT, NIH3T3, and HEK293T cells. (A–H) HepG2, Huh7, AGS, H1299, A549, HaCaT, NIH3T3, and HEK293T cells were cultured with 5r at the indicated concentrations for 72 h, and medium was replaced every 24 h with freshly added 5r. Cell viability was measured by MTS analysis (mean ± S.D., n = 5). * p < 0.05, ** p < 0.01, *** p < 0.001.

H1299 cells = assay: Cell viability assay (MTS) in H1299 cells; details: 72 h, MTS, Figure 2D
Procedure: as §1, §2, §3

A549 cells = assay: Cell viability assay (MTS) in A549 cells; details: 72 h, MTS, Figure 2E
Procedure: as §1, §2, §3

NIH3T3 cells = assay: Cell viability assay (MTS) in NIH3T3 cells; details: 72 h, Figure 2G
Procedure: as §2, §3

HepG2 cells [2] = assay: In vitro wound-healing assay in HepG2 cells; details: Figure 3
Procedure: The suppressive effect of 5r on cell migration was assessed through in vitro wound-healing assay. HepG2 and Huh7 cells were grown to approximately 100% confluence to form a monolayer in a 96-well microplate. Wounds were formed through 96-well wound maker (Essen BioScience, Ann Arbor, MI, USA). Then, growth medium was removed and washed out twice with phosphate-buffered saline (PBS) and incubated with 200 μL of DMEM and RPMI 1640 medium containing 5r or vehicle (DMSO). Images of the wound area were taken by using IncuCyte ZOOM (Essen BioScience, Ann Arbor MI, USA), and the percentage of wound closure was measured by using IncuCyte software.
Figure 3 Inhibitory effect of 5r on cell migration in HepG2 and Huh7 cells. (A,B) In vitro wound-healing assay was performed in HepG2 and Huh7 cells (mean ± S.D., n = 3). HepG2 and Huh7 cells were treated with the indicated concentrations of 5r, and time-lapse images were acquired every 2 h after wound infliction. (C,D) Representative images were taken at 0, 48, or 72 h following administration of 5r at the indicated concentrations.

caspase-3 = assay: Caspase-3 activity assay in Huh7 cells; details: 3 µM 5r for 24 h, Figure 4B
Procedure: HepG2 and Huh7 cells were plated in 96-black-well plate to about 40% confluence, and then 5r was treated for 24 h. To assess activity of caspase-3, the growth medium was changed with 100 μL of PBS containing 1 μM caspase-3 substrate, NucView 488, and incubated at room temperature. After 20 min, 1 μM Hoechst 33342 was treated to stain the cells. Activity of caspase-3 was suppressed by Ac-DEVD-CHO, a selective caspase-3 inhibitor. FLUOstar Omega microplate reader (BMG Labtech, Ortenberg, Germany) was used to assess the fluorescence of NucView 488 and Hoechst, and Lionheart FX Automated Microscope (BioTek, Winooski, VT, USA) was used to acquire the fluorescence microscopy images.
Figure 4 Effect of 5r on activity of caspase-3 and cleavage of PARP in HepG2 and Huh7 cells. (A,B) HepG2 and Huh7 cells were incubated with 3 µM 5r for 24 h and then incubated with 1 µM caspase-3 substrate (green) and 1 µM Hoechst 33,342 (blue) for 20 min before image acquisition. (C,D) Cells were cultured with 5r at the indicated concentrations for 24 h and then 1 μM caspase-3 substrate was treated for 20 min. Caspase-3 was inhibited by 20 μM Ac-DEVD-CHO (mean ± S.D., n = 3). (E,F) Cells were cultured with 5r at the indicated concentrations for 24 h, and expression level of PARP, cleaved-PARP and β-actin were measured by Western blot analysis. […]

cleaved PARP = assay: Western blot analysis of cleaved PARP in HepG2 cells; details: 24 h, Figure 4E,G
Procedure: For Western blot analysis, HepG2 and Huh7 cells were lysed with RIPA buffer (50 mM Tris-HCl, PH 7.4, 1% Nonidet P-40, 0.25% sodium deoxycholate, 150 mM NaCl, 1 mM EDTA, 1 mM Na3VO4, and protease inhibitor). Lysed samples were centrifuged at 13,000 RPM for 20 min at 4 °C to remove the cell debris, and equal amounts (60 μg protein/lane) of supernatant protein were divided by 4–12% Tris Glycine Precast Gel (KOMA BIOTECH, Seoul, Korea). Then, PVDF membranes (Millipore, Billerica, MA, USA) were used to transfer the separated proteins. Membrane blocking was performed by Tris-buffered saline with 0.1% Tween 20 (TBST) containing 5% bovine serum albumin (BSA) at room temperature for 50 min. The membranes were incubated with primary antibodies overnight at 4 °C with the indicated primary antibodies: anti-cleaved PARP (BD Biosciences) and anti-β-actin (Santa Cruz Biotechnology, Dallas, TX, USA). […] After 1 h, membranes were detected by using ECL Plus Western blotting detection system (GE Healthcare, Piscataway, NJ, USA).
Figure 4 Effect of 5r on activity of caspase-3 and cleavage of PARP in HepG2 and Huh7 cells. […] (E,F) Cells were cultured with 5r at the indicated concentrations for 24 h, and expression level of PARP, cleaved-PARP and β-actin were measured by Western blot analysis. […]

HepG2 cells [3] = assay: Combination of 5r with gemcitabine, cell viability (MTS) in HepG2 cells; details: co-treatment with gemcitabine (0.3 μM), 72 h
Procedure: as §2
Figure 6 Combination effect of 5r and gemcitabine on cell viability in HepG2 and Huh7 cells. (A,B) HepG2 and Huh7 cells were cultured with the indicated concentrations of 5r and gemcitabine (0.3 μM) for 72 h, and medium was replaced every 24 h with freshly added 5r and gemcitabine. Cell viability was determined by MTS analysis (mean ± S.D., n = 5). ** p < 0.01, *** p < 0.001.

N#Cc1c2c3cccn3c(-c3ccccc3O)nc2n2ccccc12 [Compound 5r, 5-(2-Hydroxyphenyl)pyrrolo[1′,2′:1,6]pyrimido[5,4-b]indolizine-12-carbonitrile]
IC50 (HepG2 cells [1]): 0.22 µM | Effect on cell viability in H1299 cells (H1299 cells): weak effect | Effect on cell viability in A549 cells (A549 cells): weak effect | Effect on cell viability in non-cancerous NIH3T3 cells (NIH3T3 cells): weakly decreased cell viability | Effect on cell migration (wound closure) in HepG2 cells (HepG2 cells [2]): significantly inhibited cell migration in a dose-dependent manner | Caspase-3 activity in Huh7 cells (caspase-3): potently increased caspase-3 activity | Expression level of cleaved PARP in HepG2 cells (cleaved PARP): increased the expression level of cleaved PARP in a dose-dependent manner | Combination effect with gemcitabine on cell viability in HepG2 cells (HepG2 cells [3]): additional effect rather than a synergistic effect
